Source: ChEMBL document CHEMBL5365417, “The development of diphenyleneiodonium analogs as GPR3 agonists” (Bioorg Med Chem Lett, 2023)

Key:
[1] = target: T1, G-protein coupled receptor 3 (Homo sapiens, UniProt P46089); assay: Agonist activity at human GPR3 expressed in HEK293 cells assessed as increase in cAMP accumulation incubated for 30 mins by HTRF assay; assay type: functional, cell-based
[2] = target: T1, G-protein coupled receptor 3; assay: Agonist activity at human GPR3 expressed in HEK293 cells assessed as increase in cAMP accumulation at 1 uM incubated for 30 mins by AlphaScreen assay relative to control; assay type: functional, cell-based

T1 sequence (P46089 whole entry): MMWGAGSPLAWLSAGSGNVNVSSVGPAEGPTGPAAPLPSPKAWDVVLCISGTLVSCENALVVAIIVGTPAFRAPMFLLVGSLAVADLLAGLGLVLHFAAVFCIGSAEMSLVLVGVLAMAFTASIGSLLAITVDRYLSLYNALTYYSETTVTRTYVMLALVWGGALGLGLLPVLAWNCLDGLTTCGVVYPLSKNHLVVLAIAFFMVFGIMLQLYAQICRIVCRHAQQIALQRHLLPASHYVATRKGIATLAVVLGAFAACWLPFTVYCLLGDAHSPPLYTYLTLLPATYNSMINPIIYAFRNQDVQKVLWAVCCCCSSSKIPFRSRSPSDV

| Structure (SMILES) | EC50 [1] | Activity [2] |
| --- | --- | --- |
| O=CNC1c2ccccc2-c2ccccc21 | 158 µM | – |
| CN(C)C1c2ccccc2-c2ccccc21 | 21 µM | – |
| O=c1[nH]c2ccccc2c2ccccc12 | 45 µM | – |
| c1ccc2c(c1)cnc1ccccc12 [PHENANTHRIDINE] | 67 µM | – |
| CC(C)(C)[S+]([O-])N=C1c2ccccc2-c2ccccc21 (stereo not given) | 66 µM | – |
| CN(C)C1(C)c2ccccc2-c2ccccc21 | > 100 µM | – |
| Fc1ccc2c(c1)oc1ccccc12 | 105 µM | – |
| CC1(N)c2ccccc2-c2ccccc21 | > 100 µM | – |
| c1ccc2c(c1)[nH]c1ccccc12 [CARBAZOLE] | 7.6 µM | – |
| O=[N+]([O-])c1ccc2c(c1)[I+]c1ccccc1-2 | 1.34 µM | – |
| FC1(F)Oc2cc3c(cc2O1)-c1ccccc1[I+]3 | 19.3 µM | – |
| CCCCCCCCCCCCC/C=C/[C@@H](O)[C@@H](N)COP(=O)(O)O | – | 20% |
| c1ccc2c(c1)sc1ccccc12 [DIBENZOTHIOPHENE] | 81 µM | – |
| CC1c2ccccc2-c2ccccc2N1C (stereo not given) | 60 µM | – |
| O=S1(=O)c2ccccc2-c2ccccc21 | 5.1 µM | – |
| C[n+]1cc2ccccc2c2ccccc21 | 382 µM | – |
| Cn1c2ccccc2c2ccccc21 | 40 µM | – |
| Cc1nc2ccccc2c2ccccc12 | 86 µM | – |
| NC1c2ccccc2-c2ccccc21 | > 100 µM | – |
| C[N+]1(C)c2ccccc2-c2ccccc21 | 114 µM | – |
